Experimental data as given in ChEMBL document CHEMBL1140472, “Antioxidant properties and free radical-scavenging reactivity of a family of hydroxynaphthalenones and dihydroxyanthracenones” (Bioorg Med Chem, 2007).

What was measured:
Type in all cases: functional
[1] = DPPH radical scavenging activity at 2.0 mM by ESR
[2] = DPPH radical scavenging activity at 1.0 mM by ESR
[3] = Hydroxyl radical scavenging activity at 0.6 mM by ESR
[4] = Hydroxyl radical scavenging activity at 1.0 mM by ESR
[5] = Galvinoxyl radical scavenging activity by ESR; parameters: concentration or dose not given beside the values
[6] = Hydroxyl radical scavenging activity assessed as Trolox equivalent antioxidant capacity

Work on `CC1C=CC(CO)c2c(O)c3c(c(O)c21)C(=O)C=CC3(C)C` (stereo unspecified) yielded an Activity [1] of 93%, an Activity [2] of 4% and an Activity [3] of 47.5%. For the same compound, the Activity [4] was 71.3%, the Activity [5] was 0% and the Ratio [6] was 5.1.

`CC1C=CC(CO)c2c(O)c3c(c(O)c21)C(C)(C)C=CC3=O` (stereo unspecified) gave an Activity [2] of 4%, an Activity [3] of 47.5% and an Activity [4] of 72%. It also gave an Activity [5] of 0% and a Ratio [6] of 6.41.

Compound `CC1(C)C=CC(=O)c2c(O)c3c(c(O)c21)CC=CC3` has an Activity [2] of 4%, an Activity [3] of 47.5% and an Activity [4] of 68.2%. It also gave an Activity [5] of 0% and a Ratio [6] of 5.86.

In the case of `COc1ccc(O)c2c1C(=O)C=CC2(C)C`, the Activity [2] is reported as 4%, the Activity [3] is reported as 47.5% and the Activity [4] is reported as 48.2%. It also gave an Activity [5] of 0% and a Ratio [6] of 3.42.

In the case of `CC1(C)C=CC(=O)c2c(O)ccc(O)c21`, the Activity [2] is reported as 4%, the Activity [3] is reported as 47.5% and the Activity [4] is reported as 50%. It also gave an Activity [5] of 0% and a Ratio [6] of 3.76.

Compound `COc1ccc(O)c2c1C(C)(C)C=CC2=O` has an Activity [2] of 4%, an Activity [3] of 47.5% and an Activity [4] of 47.5%. The Activity [5] was 0% and the Ratio [6] was 1.56.
